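Growth conditions: 96-well plates. Treatment: test compound, 48 hours, 5 concentrations. Analysis: linear interpolation between bracketing concentrations; unreached endpoints set to highest concentration. GI50 = concentration required for 50% inhibition of growth. TGI: concentration producing complete growth inhibition.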
Experiments:
Test in all cases: NCI-60 cell line screen, 48 h
786-0 renal = test system: 786-0 renal
A498 renal = test system: A498 renal
A549 NSCLC = test system: A549 NSCLC
ACHN renal = test system: ACHN renal
BT-549 breast = test system: BT-549 breast
CAKI-1 renal = test system: CAKI-1 renal
CCRF-CEM leukemia = test system: CCRF-CEM leukemia
COLO 205 colon = test system: COLO 205 colon
DU-145 prostate = test system: DU-145 prostate
EKVX NSCLC = test system: EKVX NSCLC
HCC-2998 colon = test system: HCC-2998 colon
HCT-116 colon = test system: HCT-116 colon
HCT-15 colon = test system: HCT-15 colon
HL-60(TB) leukemia = test system: HL-60(TB) leukemia
HOP-62 NSCLC = test system: HOP-62 NSCLC
HOP-92 NSCLC = test system: HOP-92 NSCLC
HS 578T breast = test system: HS 578T breast
HT29 colon = test system: HT29 colon
IGROV1 ovarian = test system: IGROV1 ovarian
K-562 leukemia = test system: K-562 leukemia
KM12 colon = test system: KM12 colon
LOX IMVI melanoma = test system: LOX IMVI melanoma
M14 melanoma = test system: M14 melanoma
MALME-3M melanoma = test system: MALME-3M melanoma
MCF7 breast = test system: MCF7 breast
MDA-MB-231 breast = test system: MDA-MB-231 breast
MDA-MB-435 = test system: MDA-MB-435
MOLT-4 leukemia = test system: MOLT-4 leukemia
NCI-H226 lung = test system: NCI-H226 lung
NCI-H460 lung = test system: NCI-H460 lung
NCI-H522 lung = test system: NCI-H522 lung
NCI/ADR-RES ovarian = test system: NCI/ADR-RES ovarian
OVCAR-4 ovarian = test system: OVCAR-4 ovarian
OVCAR-5 ovarian = test system: OVCAR-5 ovarian
OVCAR-8 ovarian = test system: OVCAR-8 ovarian
PC-3 prostate = test system: PC-3 prostate
RPMI-8226 leukemia = test system: RPMI-8226 leukemia
RXF 393 renal = test system: RXF 393 renal
SF-268 CNS = test system: SF-268 CNS
SF-295 CNS = test system: SF-295 CNS
SF-539 CNS = test system: SF-539 CNS
SK-MEL-2 melanoma = test system: SK-MEL-2 melanoma
SK-MEL-28 melanoma = test system: SK-MEL-28 melanoma
SK-MEL-5 melanoma = test system: SK-MEL-5 melanoma
SK-OV-3 ovarian = test system: SK-OV-3 ovarian
SN12C renal = test system: SN12C renal
SNB-19 CNS = test system: SNB-19 CNS
SNB-75 CNS = test system: SNB-75 CNS
SR leukemia = test system: SR leukemia
SW-620 colon = test system: SW-620 colon
T-47D breast = test system: T-47D breast
TK-10 renal = test system: TK-10 renal
U251 CNS = test system: U251 CNS
UACC-257 melanoma = test system: UACC-257 melanoma
UACC-62 melanoma = test system: UACC-62 melanoma
UO-31 renal = test system: UO-31 renal

SMILES: c1n[nH]cc1-c1nc2ccc3[nH]ncc3c2c2c1CCCC2
- GI50 (786-0 renal): 1410 nM
- TGI (786-0 renal): 2720 nM
- GI50 (A498 renal): 405 nM
- TGI (A498 renal): 1920 nM
- GI50 (A549 NSCLC): 2010 nM
- TGI (A549 NSCLC): 12300 nM
- GI50 (ACHN renal): 560 nM
- TGI (ACHN renal): 10300 nM
- GI50 (BT-549 breast): 1220 nM
- TGI (BT-549 breast): 2490 nM
- GI50 (CAKI-1 renal): 511 nM
- TGI (CAKI-1 renal): 10400 nM
- GI50 (CCRF-CEM leukemia): 2420 nM
- TGI (CCRF-CEM leukemia): > 100000 nM
- GI50 (COLO 205 colon): 1310 nM
- TGI (COLO 205 colon): 4470 nM
- GI50 (DU-145 prostate): 1710 nM
- TGI (DU-145 prostate): 11600 nM
- GI50 (EKVX NSCLC): 887 nM
- TGI (EKVX NSCLC): 3330 nM
- GI50 (HCC-2998 colon): 1640 nM
- TGI (HCC-2998 colon): 7310 nM
- GI50 (HCT-116 colon): 635 nM
- TGI (HCT-116 colon): 7920 nM
- GI50 (HCT-15 colon): 1380 nM
- TGI (HCT-15 colon): 14000 nM
- GI50 (HL-60(TB) leukemia): 1490 nM
- TGI (HL-60(TB) leukemia): 5590 nM
- GI50 (HOP-62 NSCLC): 1750 nM
- TGI (HOP-62 NSCLC): 7680 nM
- GI50 (HOP-92 NSCLC): 2240 nM
- TGI (HOP-92 NSCLC): 6310 nM
- GI50 (HS 578T breast): 914 nM
- TGI (HS 578T breast): 4020 nM
- GI50 (HT29 colon): 1670 nM
- TGI (HT29 colon): 10900 nM
- GI50 (IGROV1 ovarian): 1350 nM
- TGI (IGROV1 ovarian): 8150 nM
- GI50 (K-562 leukemia): 3010 nM
- TGI (K-562 leukemia): > 100000 nM
- GI50 (KM12 colon): 2910 nM
- TGI (KM12 colon): 8900 nM
- GI50 (LOX IMVI melanoma): 1150 nM
- TGI (LOX IMVI melanoma): 2910 nM
- GI50 (M14 melanoma): 1110 nM
- TGI (M14 melanoma): 3360 nM
- GI50 (MALME-3M melanoma): 1560 nM
- TGI (MALME-3M melanoma): 4760 nM
- GI50 (MCF7 breast): 2420 nM
- TGI (MCF7 breast): 11700 nM
- GI50 (MDA-MB-231 breast): 1960 nM
- TGI (MDA-MB-231 breast): 12000 nM
- GI50 (MDA-MB-435): 1400 nM
- TGI (MDA-MB-435): 4380 nM
- GI50 (MOLT-4 leukemia): 1990 nM
- TGI (MOLT-4 leukemia): 7880 nM
- GI50 (NCI-H226 lung): 1280 nM
- TGI (NCI-H226 lung): 3650 nM
- GI50 (NCI-H460 lung): 783 nM
- TGI (NCI-H460 lung): 4850 nM
- GI50 (NCI-H522 lung): 835 nM
- TGI (NCI-H522 lung): 2770 nM
- GI50 (NCI/ADR-RES ovarian): 2100 nM
- TGI (NCI/ADR-RES ovarian): 6050 nM
- GI50 (OVCAR-4 ovarian): 2350 nM
- TGI (OVCAR-4 ovarian): 7930 nM
- GI50 (OVCAR-5 ovarian): 2710 nM
- TGI (OVCAR-5 ovarian): 17900 nM
- GI50 (OVCAR-8 ovarian): 1640 nM
- TGI (OVCAR-8 ovarian): 4380 nM
- GI50 (PC-3 prostate): 2370 nM
- TGI (PC-3 prostate): 11600 nM
- GI50 (RPMI-8226 leukemia): 1510 nM
- TGI (RPMI-8226 leukemia): 4940 nM
- GI50 (RXF 393 renal): 1170 nM
- TGI (RXF 393 renal): 2770 nM
- GI50 (SF-268 CNS): 1950 nM
- TGI (SF-268 CNS): 4630 nM
- GI50 (SF-295 CNS): 2110 nM
- TGI (SF-295 CNS): 8490 nM
- GI50 (SF-539 CNS): 1380 nM
- TGI (SF-539 CNS): 3090 nM
- GI50 (SK-MEL-2 melanoma): 1260 nM
- TGI (SK-MEL-2 melanoma): 3120 nM
- GI50 (SK-MEL-28 melanoma): 1590 nM
- TGI (SK-MEL-28 melanoma): 4510 nM
- GI50 (SK-MEL-5 melanoma): 1280 nM
- TGI (SK-MEL-5 melanoma): 3220 nM
- GI50 (SK-OV-3 ovarian): 680 nM
- TGI (SK-OV-3 ovarian): 11600 nM
- GI50 (SN12C renal): 1840 nM
- TGI (SN12C renal): 7540 nM
- GI50 (SNB-19 CNS): 2780 nM
- TGI (SNB-19 CNS): 9850 nM
- GI50 (SNB-75 CNS): 1310 nM
- TGI (SNB-75 CNS): 2880 nM
- GI50 (SR leukemia): 287 nM
- TGI (SR leukemia): 5450 nM
- GI50 (SW-620 colon): 924 nM
- TGI (SW-620 colon): 6540 nM
- GI50 (T-47D breast): 2210 nM
- TGI (T-47D breast): 8180 nM
- GI50 (TK-10 renal): 766 nM
- TGI (TK-10 renal): 8200 nM
- GI50 (U251 CNS): 2060 nM
- TGI (U251 CNS): 12100 nM
- GI50 (UACC-257 melanoma): 1860 nM
- TGI (UACC-257 melanoma): 6640 nM
- GI50 (UACC-62 melanoma): 1060 nM
- TGI (UACC-62 melanoma): 3250 nM
- GI50 (UO-31 renal): 1540 nM
- TGI (UO-31 renal): 7650 nM

From PubChem BioAssay (NCI)
